Reference: US10947203B2, “1,4,5-substituted 1,2,3-triazole analogues as antagonists of the pregnane X receptor” (ST. JUDE CHILDREN'S RESEARCH HOSPITAL, priority 2016, dated 2021)

Columns and labels:
[1] = tested on: primary human hepatocytes (PHHs); assay: paclitaxel metabolism in primary human hepatocytes; assay type: cell-based; settings: 1 μM PTX with 10 μM test compound; 24 and 48 hr; FIGS. 1B, 1C
Experimental: (§1) The concentrations of 1′-OH MDZ (MDZ metabolite) in the media of each pretreatment condition were determined using LC/MS/MS as described in the Examples. […] PHHs were also treated with 1 μM of PTX in the absence and presence of 10 μM of the test compound, and then the concentrations of major PTX metabolites, 3-OH PTX (by CYP3A4) and 6α-OH PTX (by CYP2C8), were determined using LC/MS/MS at 24 hr and 48 hr of treatment, respectively.
(§2) Midazolam and 1-OH midazolam were from BD Gentest. Midazolam-D4 maleate (internal standard, IS) was from Cerilliant; Paclitaxel and 3′-p-hydroxypaclitaxel were from Sigma; and 6u-hydroxy Paclitaxel was from Cayman Chemical. 100 μl of reaction medium at each different time point was collected and 200 μl of acetonitrile containing IS was added. This solution was then vigorously mixed for 10 min and centrifuged at 10,000 rpm for 10 min. Calibration and quality control samples were prepared. 5 μl of the samples was injected onto a Waters Acquity UPLC BEH C18 column (2.1x 50 mm, 1.7 μm), using a Waters Acquity UPLC system. Chromatographic separation was performed by gradient elution at a constant flow rate of 1 mL/min for 15 min. The gradient consisted of 0.1% formic acid water (mobile phase A) and methanol (mobile phase B). […] Nitrogen was applied as curtain, collision and drying gas at 60 psi. […]

[2] = tested on: primary human hepatocytes (PHHs); assay: midazolam metabolism in primary human hepatocytes pretreated with hPXR agonist; assay type: cell-based; settings: 10 μM test compound; 72 hr pretreatment with DMSO, 1.6 μM RIF, 0.5 or 5 μM PTX; then 3.3 μM MDZ 4 h; FIG. 1A
Experimental: as §1, §2

[3] = tested on: hPXR-mediated increase in CYP3A expression; assay: liver Cyp3a11 mRNA and CYP3A protein in hPXR-tg mice; assay type: in vivo, mouse; settings: RIF 10 mg/kg plus test compound 200 mg/kg, 72 h, FIGS. 3A-3C
Experimental: Briefly, mouse liver Cyp3a11 mRNA was analyzed by real-time PCR in hPXR-tg mice treated with vehicle control (Vehicle), RIF (10 mg/kg) or RIF (10 mg/kg) plus test compound (200 mg/kg) for 72 h. Each data point represents the level of Cyp3a11 mRNA (FIG. 3A) or protein (FIG. 3B) in an individual mouse; lines indicate the mean value for 3-7 mice per group.
hPXR-tg mice were generated previously (Xie et al., 2000). Five mice in each group were dosed orally with vehicle control or 10 mg/kg RIF, every 24 h for three days. Eight hours after the last dose, the animals were euthanized by C02 and liver tissues were harvested. A piece of each liver was preserved in RNAlater solution (Invitrogen) at 4° C. for mRNA isolation. The remaining tissue was instantly frozen in liquid nitrogen and stored at −80° C. for total protein extraction. […]

[4] = tested on: RIF-induced metabolism of the anesthetic (CYP3A11); assay: loss of righting reflex (LORR) assay in hPXR-tg mice; assay type: in vivo, mouse; settings: RIF 10 mg/kg plus test compound 200 mg/kg every 24 h for three days, FIG. 5
Experimental: Loss of righting reflex (LORR) duration was recorded as described in Examples to measure metabolism of the anesthetic ([…]) in hPXR-tg, mice before and after treatment with vehicle, RIF, and RIF plus the test compound as indicated. Each data point represents LORR duration in an individual mouse; lines indicate LORR duration change in individual mouse before and after treatment. P values indicate comparison of values by paired t test.
Mice were intraperitoneally injected with 250 mg/kg of 2,2,2-tribromoethanol, which is metabolically cleared only via mouse CYP3A11. After the mice lost their righting reflex, they were placed on their backs under a heat lamp. The duration of LORR was measured as the time from the start of LORR to recovery (i.e., when mice could right themselves after being placed on their backs twice within 1 min). A baseline LORR duration was established for each mouse at the administered dose of 2,2,2-tribromoethanol. […] The paired Student's t-test was used to compare LORR duration between baseline and after treatment. A P value <0.05 was considered to indicate a significant difference between compared groups.

[5] = tested on: hPXR-mediated CYP3A4 promoter reporter activity; assay: CYP3A4 promoter reporter activity in hPXR-CYP3A4-luc reporter mice (bioluminescence imaging); assay type: in vivo, mouse; settings: RIF 10 mg/kg plus test compound 150 mg/kg every 24 h for 2 days; imaging 10 h after last treatment; FIG. 4
Experimental: Individual mouse received 3 rounds of sequential treatment of vehicle control (Vehicle), RIF (10 mg/kg) and RIF (10 mg/kg) plus the test compound (150 mg/kg) every 24 h for 2 days, respectively, with a washout period of 72-hour between two rounds of treatment. The luciferase activity in these reporter mice was recorded by bioluminescence imaging 10 h after the last treatment of each round, and the induction of CYP3A4 promoter reporter activity was calculated as described in Examples. Each data point represents the induction of CYP3A4 promoter reporter activity by the treatment in an individual mouse, and dos lines indicate the CYP3A4 promoter reporter activity change in individual mouse after following round of treatment. p values are indicated between the two treatment compared by paired t test.
10 hours after the last treatment of each round, the mice were imaged as described above. Uniform regions of interest were drawn around the liver, and total photon flux was analyzed with Living Image 3.2 software (Xenogen). The induction of CYP3A4-luc reporter activity was calculated using the imaging from the same mouse as follows: induction rate=total photon flux (after treatment)/total photon flux (before treatment).

COc1ccc(OC)c(-n2nnc(S(=O)(=O)c3ccc(C(C)(C)C)cc3)c2C)c1 [4-((4-(tert-butyl)phenyl)sulfonyl)-1-(2,5-dimethoxyphenyl)-5-methyl-1H-1,2,3-triazole]
metabolism of PTX to 3-OH PTX and 6α-OH PTX [1]: effectively blocked
metabolism of MDZ (1′-OH MDZ concentration in media) [2]: essentially blocked
hPXR-mediated increase in CYP3A expression (liver Cyp3a11 mRNA, CYP3A protein) [3]: inhibits the hPXR-mediated increase in CYP3A expression
RIF-induced metabolism of the anesthetic, as determined by LORR duration [4]: significantly inhibited
RIF-induced expression of the reporter under the control of the CYP3A4 promoter [5]: significantly reduced
